Laboratory results reported in US20260374750A1, “LIGANDS SPECIFICALLY TARGETING VESICULAR GLUTAMATE TRANSPORTERS FOR SUPER-RESOLUTION IMAGING” (SORBONNE UNIVERSITÉ, priority 2021, published 2026).

How the values were obtained:
striatum slices = test: Fluorescent labeling of striatum slices; assay type: cell-based, mouse; details: 25 μM, 1 h, 37 °C
Experimental: The compatibility of the fluorescent compounds of the invention was determined in brain slices from newborns mice, a study model with greater integrity than cell culture. Mice aged 4 to 7 days are decapitated. The brains are removed and then placed in Neurobasal™-A Medium (10888022, ThermoFisher Scientific) enriched with 2% B-27™ Plus (A3582801, ThermoFisher Scientific) and 1% (volume/volume) of a mixture of streptomycin (10 mg/mL)/penicillin (10,000 U/mL). The brains are cut into 500 μm thick slices (McIlwain Tissue Chopper, model TC752) then dissociated from each other. The slices corresponding to the striatum are selected and incubated for one hour in the medium in the presence of 25 μM of fluorescent ligand, or without fluorescent molecule for the controls. Incubations in the presence or absence of the reference VGLUT inhibitor were carried out.
The brain slices were incubated in the presence of each of the compounds according to the invention D04, C07, C05, B09, L8, YL151, G02, F11 (See reference correspondences in Table 1). FIG. 4 illustrates the quantification of fluorescence of striatum slices after incubation in the presence of fluorescent compounds of the invention. […] Acquisitions were carried out using a confocal microscope (×5 objective) and the average fluorescence intensity for each slice was quantified. […]

[1] = system: VGLUT3 (BON VGLUT3 cells); test: Confocal fluorescence labeling of BON cells expressing VGLUT3; assay type: cell-based, human (BON cells); details: for fluorescence intensity in BON VGLUT3 cells relative to BON WT cells / labeling in cytoplasm of BON VGLUT3 cells / effect of LSP5 pretreatment on fluorescence intensity in BON VGLUT3 cells: FIG. 2; for fluorescence intensity in BON VGLUT3 cells relative to BON WT cells / labeling in cytoplasm of BON VGLUT3 cells: 1 h; for fluorescence intensity in BON VGLUT3 cells relative to BON WT cells / labeling in cytoplasm of BON VGLUT3 cells / intensity of labeling in BON VGLUT3 cells relative to BON WT cells: 37 °C; for effect of LSP5 pretreatment on fluorescence intensity in BON VGLUT3 cells: pretreatment with LSP5-2157; for intensity of labeling in BON VGLUT3 cells relative to BON WT cells: FIG. 3, 20 minutes
Experimental: A “BON” cell line describes cells derived from human pancreatic carcinoma; the article by Ramet L. et al., published in J Neurosci, 2017, 37 (15), 4181-4199, describes such cells and the use thereof for the characterization of VGLUT type transporters.
(§1) The experiments are carried out with a BON cell line stably expressing VGLUT3 or a fluorescent VGLUT2 “VGLUT2-venus”. Wild non-transfected BON cells (“wild-type”, BON WT) are used as controls. The cells are cultured in F-12 Nutrient Mixture Ham medium (21765-029, Thermo Fisher Scientific) and Dulbecco's Modified Eagle's Medium High Glucose (DMEM HG, 31966021, Thermo Fisher Scientific; volume/volume), supplemented with 10% fetal calf serum (FCS, 12483012, Thermo Fisher Scientific) and 1% (volume/volume) of a mixture of streptomycin (10 mg/mL)/penicillin (10,000 U/mL) and […] an incubator at 37 °C under 5% CO2. For the transfected clones, the medium is enriched with 0.8 mg/mL Geneticin G418 sulfate (G418, 10131027, Thermo Fisher Scientific).
The cells are cultured in 25 cm^2 culture flasks. When the cells are at confluence, they are rinsed with sterile PBS 1× after aspiration of the medium, then incubated for five minutes at 37 °C with a solution of trypsin-EDTA (0.05% trypsin EDTA, 25300054, Thermo Fisher Scientific. The cell layer is then detached and the cells dissociated from each other. After addition of medium, the cell suspension is centrifuged for 5 minutes at 300 g, then the pellet is diluted 1:3 in order to be recultivated.
(§2) Two days before each experiment, after trypsinization of the cells from a culture flask, the cell suspension is seeded at 150,000 cells/well, in twelve-well plates on glass coverslips 19 mm in diameter. For observation, these coverslips are placed in a chamber allowing a hermetic fixation of the coverslip in the observation medium, Fluorobrite™ DMEM (A1896701, Thermo Fisher Scientific), a transparent medium.
(§3) Before each observation, the cells are incubated at 37 °C in the presence of fluorescent ligands, at previously determined concentrations. The effect of a pretreatment of BON cells with a specific inhibitor of VGLUTs, the substance LSP5-2157, is also performed to study the inhibitory effect of this substance on the labeling of BON cells with the fluorescent ligands of the invention.
(§4) The cells are observed in real time under an inverted confocal microscope, with a 63× objective in a room thermostated at 37 °C (Leica TCS SP5; cellular imaging platform of the Paris-Seine Institute of Biology). The studied fluorescent molecules emit in the blue, the cells are excited at 405 nm.
(§5) FIG. 2 illustrates the observation and quantification of the BON cells under a confocal microscope, and the inhibition of the fluorescent signal by a pretreatment of the cells with the specific VGLUT inhibitor, LSP5-2157. […] The images are presented in negative. D,H,L and P: Quantification of the treatment effect.
Different acquisitions of cells are carried out using a confocal microscope. […] Statistical analysis: Kruskal-Wallis test followed by Dunn's post-hoc test, NS: non-significant, *p<0.01; ***p<0.0001.
FIG. 3 illustrates the observation and quantification of BON cells using a confocal microscope. Wild-type cells (BON WT) or VGLUT3-expressing cells (BON VGLUT3) are incubated with different fluorescent ligands referenced: L8, YL151, D04, C07, C05, B09, G02, F11. After treatment with fluorescent ligands for 20 minutes at 37 °C, a fluorescent labeling is visible in BON cells. The effect of the treatment is analyzed by quantifying the fluorescence intensity in each cell type. […] Statistical analysis: Mann Whitney test, NS: non-significant, **p=0.0042; ***p<0.0001.

BON WT cells = test: Confocal fluorescence labeling of wild-type BON cells; assay type: cell-based, human; details: FIG. 2
Experimental: as §1, §2, §3, §4, §5

Compound	difference between ester (F11) and acid (G02) labeling of slices (striatum slices)	fluorescence intensity in BON VGLUT3 cells relative to BON WT cells [1]	labeling in cytoplasm of BON VGLUT3 cells [1]	effect of LSP5 pretreatment on fluorescence intensity in BON VGLUT3 cells [1]	intensity of labeling in BON VGLUT3 cells relative to BON WT cells [1]	labeling in cytoplasm of BON WT cells (BON WT cells)
Nc1ccc(-c2ccc(C#Cc3cc4cc(C(=O)O)c(=O)oc4cc3O)cc2)cc1 [LSP17-1173, 6-((4′-amino-[1,1′-biphenyl]-4-yl)ethynyl)-7-hydroxy-2-oxo-2H-chromene-3-carboxylic Acid]	no significant difference between the compounds G02 and F11	significantly increases	a punctiform labeling appears	decreases the fluorescence intensity	increases significantly	a weak and homogeneous labeling is detected
COc1cc2oc(=O)c(C(=O)O)cc2cc1-n1cc(-c2ccc(-c3ccc(N)cc3)cc2)nn1 [LSP17-1124, 6-(4-(4′-amino-[1,1′-biphenyl]-4-yl)-1H-1,2,3-triazol-1-yl)-7-methoxy-2-oxo-2H-chromene-3-carboxylic Acid]					increases significantly	
CCOC(=O)c1cc2cc(C#Cc3ccc(-c4ccc(N)cc4)cc3)c(O)cc2oc1=O [F11, Ethyl-6-((4′-amino-[1,1′-biphenyl]-4-yl)ethynyl)-7-hydroxy-2-oxo-2H-chromene-3-carboxylate]	no significant difference between the compounds G02 and F11				increases significantly	
Nc1ccc(-c2ccc(-c3cn(-c4ccc5oc(=O)c(C(=O)O)cc5c4)nn3)cc2)cc1 [LSP17-1115, 6-(4-(4′-amino-[1,1′-biphenyl]-4-yl)-1H-1,2,3-triazol-1-yl)-2-oxo-2H-chromene-3-carboxylic Acid]					increases significantly	
O=C(O)c1cc(C(=O)O)c2cc(-c3ccc(-c4ccccc4)cc3)ccc2n1 [LSP13-1152-YL152 (L8), 6-(Biphenyl-4-yl) quinoline-2,4-dicarboxylic Acid]		significantly increases	a punctiform labeling appears	decreases the fluorescence intensity	increases significantly	a weak and homogeneous labeling is detected
